According to patent US20250161248A1, “Treating Chronic Myelomonocytic Leukemia with CXCL8 Receptor Inhibitors” (Institut Gustave Roussy, priority 2023, published 2025):
Entries after “also recorded” stand apart in the source; their conditions may differ.

Tests used:
[1] = tested on: wildtype CD34+ cells (cord blood, healthy donor bone marrow); experiment: CD34+ liquid culture, cell output/proliferation (healthy donor cells); type: cell-based, human; conditions: for proliferation of wildtype CD34+ cells in liquid culture: inhibitor 10 uM in combination with CXCL8 10 ng/mL, FIG. 12E
Protocol: (§1) Reagents, CXCR1/2 inhibitors Reparixin and Ladarixin were from MedChemTronica and Clinisciences, respectively, dissolved in dimethylsulfoxide (DMSO). Stem cell factor recombinant (SCF), interleukin-3 recombinant (IL-3), thrombopoietin recombinant (TPO), Fms-like tyrosine kinase 3 recombinant (FLT-3) and Interleukin 8 (IL-8 or CXCL8) were from Peprotech.
(§2) CD34^+ cultures, CD34^+ cells were cultured for 72 h at 1×10^5 cells/ml in complete MEM-alpha medium, SCF (50 ng/mL), IL-3 (10 ng/mL), TPO (10 ng/mL) and FLT-3 (50 ng/mL […]), to which CXCL8 was added in a 37° C. incubator with 5% CO2. Cells were counted after Trypan blue staining. For methylcellulose assays, CD34+ cells were plated in duplicate, at 500 cells with 1 mL complete methylcellulose (MethoCult™ H4034 Optimum, Stem cell) with indicated doses of CXCL8. Colonies were enumerated and phenotyped at day 14.

[2] = tested on: healthy donor CD34+ cells (cord blood, bone marrow); experiment: Methylcellulose colony formation assay (healthy donor cells); type: cell-based, human; conditions: for colony forming capacity of wildtype CD34+ cells (total colony output): inhibitor 10 mM (so in the source) in combination with CXCL8 10 ng/mL, FIG. 6F
Protocol: as §1, §2

[3] = tested on: neutrophil-dependent airway inflammation; conditions: mice; cited from earlier work
[4] = tested on: pancreatic ductal adenocarcinoma (PDAC); conditions: cited from earlier work
uveal melanoma = conditions: animal model of uveal melanoma; cited from earlier work
CXCR1 and CXCR2 = conditions: CXCR1 over CXCR2; cited from earlier work
[5] = tested on: ischemia-reperfusion injury; conditions: clinical studies; cited from earlier work
[6] = tested on: thyroid cancer tumor cells; conditions: in vitro; cited from earlier work
[7] = tested on: HER-2 negative metastatic breast cancer; conditions: phase I, in combination with paclitaxel chemotherapy; cited from earlier work
[8] = tested on: triple negative breast cancer; conditions: phase II, in combination with paclitaxel; cited from earlier work
CMML CD34+ cells [9] = experiment: CD34+ liquid culture, cell output/proliferation (CMML cells); type: cell-based, human; conditions: liquid culture with CXCL8
Protocol: as §2

CMML CD34+ cells [10] = experiment: Methylcellulose colony formation assay (CMML cells); type: cell-based, human; conditions: methylcellulose with CXCL8
Protocol: as §2

Compound | proliferation of wildtype CD34+ cells in liquid culture [1] | colony forming capacity of wildtype CD34+ cells (total colony output) [2] | neutrophil-dependent airway inflammation [3] | antitumor activity of combination ([4]; mouse PDAC model, ladarixin combined with an anti-PD-1 monoclonal antibody) | activity in PDAC model ([4]; mouse model, ladarixin) | TAM polarization (uveal melanoma) | tumor cell migration (uveal melanoma) | healthy donor CD34+ colony formation in presence of IGRAN supernatant ([2]; IGRAN supernatant plus reparixin 10 mM (so in the source), FIG. 6G) | potency to inhibit CXCR1 activity relative to CXCR2 (CXCR1 and CXCR2) | neutrophil recruitment and inflammatory injury in ischemia-reperfusion [5] | direct anti-tumor activity, tumor cell proliferation [6] | tolerability [7] | clinical benefit compared to paclitaxel alone [8] | cord blood CD34+ cell proliferation ([1]; liquid culture with indicated doses of CXCL8, FIG. 6A) | adult healthy donor bone marrow CD34+ cell proliferation ([1]; liquid culture, CXCL8 10 ng/mL, 72 hours, FIG. 12A, 12E) | colony number / colony forming capacity of healthy cord blood or bone marrow CD34+ cells ([2]; 14 days, CXCL8, CFU-GM and CFU-E affected, FIG. 6B, 6F) | CMML CD34+ cell proliferation (CMML CD34+ cells [9]) | CMML CD34+ cell proliferation in colony formation assays (CMML CD34+ cells [10])
C[C@@H](C(=O)NS(C)(=O)=O)c1ccc(OS(=O)(=O)C(F)(F)F)cc1 [ladarixin, 4-[(2 R)-1-oxo-1-(methanesulfonamido)propan-2-yl]phenyl trifluoromethanesulfonate] | restored | restored | improves neutrophil-dependent airway inflammation | improved antitumor activity compared to either agent alone | significant activity | repolarized TAMs to a M1 phenotype | inhibited tumor cell migration |  |  |  |  |  |  |  |  |  |  | 
CC(C)Cc1ccc([C@@H](C)C(=O)NS(C)(=O)=O)cc1 [reparixin, R-(−)-2-(4-isobutylphenyl)propionyl methansulfonamide] | restored | restored |  |  |  |  |  | blocked the inhibitory effects of this supernatant | 400 fold | effectively regulate neutrophil recruitment and attenuate inflammatory injury | inhibiting tumor cell proliferation | well tolerated | no additional clinical benefit |  |  |  |  | 
CXCL8: Interleukin 8 (IL-8 or CXCL8) chemokine from Peprotech, added to CD34+ cultures |  |  |  |  |  |  |  |  |  |  |  |  |  | dose-dependent inhibition | decreased | decrease in colony number; also recorded: decreased colony forming capacity | failed to inhibit | not affected
